From patent publication US10323036B2 (Nimbus Lakshmi, Inc., priority 2016, dated 2019)
Where two headings read alike, the source gives them in different places.

Experiments:
[1] = biological target: human TYK2 (JH2domain-pseudokinase) (Homo sapiens (Human), UniProt P29597); assay: TYK2 JH2 Domain Binding Assay (KINOMEscan); settings: read-out: JH2 Kd
TYK2 JH1 kinase = TYK2 JH1 kinase (Homo sapiens (Human), UniProt P29597); assay: Tyk2 Radioactive Kinase Assay; type: biochemical; settings: ATP at 10 μM
Procedure: (§1) Peptide substrate, [KKSRGDYMTMQIG (SEQ ID NO: 2)], (20 μM) is prepared in reaction buffer (20 mM Hepes pH 7.5, 10 mM MgCl2, 1 mM EGTA, 0.02% Brij35, 0.02 mg/mL BSA, […], 2 mM DTT, 1% DMSO. TYK2 (Invitrogen) kinase is added, followed by compounds in DMSO. 33PATP is added to initiate the reaction in ATP at 10 μM. Kinase reaction is incubated for 120 min at room temp and reactions are spotted onto P81 ion exchange paper (Whatman #3698-915), and then washed extensively in 0.75% phosphoric acid, prior to reading the radioactivity counts. For JAK2 (Invitrogen) kinase assay the peptide substrate poly[Glu:Tyr] (4:1), 0.2 mg/ml is used, in the reaction carried out the same as for TYK2.

GM-CSF induced pSTAT5 = assay: GM-CSF Induced pSTAT5 in Human PBMC; type: cell-based; settings: 5 ng/mL GM-CSF, read-out: IC50 of inhibition of pSTAT5 production
Procedure: Cells are prepared for analysis as in the above procedure and 15 μl of GM-CSF (final concentration 5 ng/mL) is added for 20 minutes prior to pSTAT5 and total STAT5 analysis using cell lysates prepared and analyzed by MSD reagents as per manufacturer protocol. The final DMSO concentration of compound in the assay is 0.1%.

JAK2 JH1 kinase = JAK2 JH1 kinase (Homo sapiens (Human), UniProt O60674); assay: JAK2 Radioactive Kinase Assay; type: biochemical; settings: ATP at 10 μM
Procedure: as §1

[2] = Table 5, Tyk2 JH2 Domain Binding Assay

Sequence of human TYK2 (JH2domain-pseudokinase) (P29597 556-888): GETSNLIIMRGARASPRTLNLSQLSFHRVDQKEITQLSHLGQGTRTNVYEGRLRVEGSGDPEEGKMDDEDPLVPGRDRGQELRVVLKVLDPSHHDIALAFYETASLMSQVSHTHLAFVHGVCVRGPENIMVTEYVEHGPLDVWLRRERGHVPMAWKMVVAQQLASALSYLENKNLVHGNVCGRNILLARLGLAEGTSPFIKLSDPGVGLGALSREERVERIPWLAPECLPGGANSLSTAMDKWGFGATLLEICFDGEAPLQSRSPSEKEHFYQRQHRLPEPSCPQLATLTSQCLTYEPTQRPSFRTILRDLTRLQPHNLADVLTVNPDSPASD
Sequence of JAK2 JH1 kinase (O60674 808-1132): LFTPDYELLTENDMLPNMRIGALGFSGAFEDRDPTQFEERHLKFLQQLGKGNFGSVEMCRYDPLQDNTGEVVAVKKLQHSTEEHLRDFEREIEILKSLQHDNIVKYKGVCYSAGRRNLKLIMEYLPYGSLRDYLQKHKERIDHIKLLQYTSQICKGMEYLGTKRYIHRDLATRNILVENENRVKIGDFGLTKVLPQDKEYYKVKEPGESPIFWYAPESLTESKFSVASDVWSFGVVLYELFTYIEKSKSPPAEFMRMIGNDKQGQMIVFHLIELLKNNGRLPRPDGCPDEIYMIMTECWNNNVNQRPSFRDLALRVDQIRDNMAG
Sequence of TYK2 JH1 kinase (P29597 833-1187): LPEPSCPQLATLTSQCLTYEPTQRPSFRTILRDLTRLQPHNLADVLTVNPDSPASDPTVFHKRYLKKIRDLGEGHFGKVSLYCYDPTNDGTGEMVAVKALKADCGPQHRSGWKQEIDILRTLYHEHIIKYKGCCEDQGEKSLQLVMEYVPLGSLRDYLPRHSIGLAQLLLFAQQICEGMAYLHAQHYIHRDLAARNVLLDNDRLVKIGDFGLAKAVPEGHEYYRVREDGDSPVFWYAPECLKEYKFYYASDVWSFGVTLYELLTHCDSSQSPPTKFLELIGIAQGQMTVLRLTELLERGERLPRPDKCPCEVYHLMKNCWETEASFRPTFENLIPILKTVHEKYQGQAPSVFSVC

SMILES | Kd ([1]; Table 4, JH2 binding assay) | inhibitory activity against TYK2 JH1 kinase function (TYK2 JH1 kinase) | Kd [1, 2] | IC50 (GM-CSF induced pSTAT5) | inhibitory activity against JAK2 JH1 kinase function (JAK2 JH1 kinase)
COc1c(Nc2cc(NC(=O)C3CC3)nc3[nH]n(C)c(=O)c23)cccc1-c1nnn(C)n1 [Compound I-1] | < 0.1 nM | no detectable inhibitory activity |  |  | 
COCc1ccnc(Nc2cc(Nc3cccc(-c4nnn(C)n4)c3OC)c3c(=O)n(C)[nH]c3n2)c1 [Compound I-2, 4-((2-methoxy-3-(2-methyl-2H-tetrazol-5-yl)phenyl)amino)-6-((4-(methoxymethyl)pyridin-2-yl)amino)-2-methyl-1,2-dihydro-3H-pyrazolo[3,4-b]pyridin-3-one] | 0.1 to 0.5 nM | no detectable inhibitory activity |  |  | 
COc1c(Nc2cc(NC(=O)C3CC3)ncc2-c2ncc(Cl)s2)cccc1-c1nnn(C)n1 [VIII-1, N-(5-(5-chlorothiazol-2-yl)-4-((2-methoxy-3-(2-methyl-2H-tetrazol-5-yl)phenyl)amino)pyridin-2-yl)cyclopropanecarboxamide] |  |  | 1 to 10 nM | > 50000 nM | 
COc1c(Nc2cc(NC(=O)C3CC3)ncc2-c2ncc(F)s2)cccc1-c1nnn(C)n1 [VIII-2, N-(5-(5-fluorothiazol-2-yl)-4-((2-methoxy-3-(2-methyl-2H-tetrazol-5-yl)phenyl)amino)pyridin-2-yl)cyclopropanecarboxamide] |  | no detectable inhibitory activity | 10 to 100 nM |  | no detectable inhibitory activity
COc1c(Nc2cc(NC(=O)C3CC3)ncc2-c2nnc(C(F)(F)F)o2)cccc1-c1ncn(C)n1 [VIII-3, N-(4-((2-methoxy-3-(1-methyl-1H-1,2,4-triazol-3-yl)phenyl)amino)-5-(5-(trifluoromethyl)-1,3,4-oxadiazol-2-yl)pyridin-2-yl)cyclopropanecarboxamide] |  | no detectable inhibitory activity | > 100 nM |  | no detectable inhibitory activity
COC(=O)c1nnc(-c2cnc(NC(=O)C3CC3)cc2Nc2cccc(-c3ncn(C)n3)c2OC)o1 [VIII-4, methyl 5-(6-(cyclopropanecarboxamido)-4-((2-methoxy-3-(1-methyl-1H-1,2,4-triazol-3-yl)phenyl)amino)pyridin-3-yl)-1,3,4-oxadiazole-2-carboxylate] |  | no detectable inhibitory activity | 1 to 10 nM |  | no detectable inhibitory activity
